Assay results: patent US12527869B2, “Stable microspheres, method off abrication and use thereof” (B. G. NEGEV TECHNOLOGIES AND APPLICATIONS LTD., AT …, priority 2018, dated 2026)
In brackets after ≈: the same amount, converted by molar mass.

Columns and labels:
[1] = cited from earlier work
[2] = cited from earlier work; for Ostwald coefficient (×10^6): gas solubility
[3] = In vitro cavitation measurement by passive cavitation detection (PCD); conditions: C3F8; 499 KPa; about 6×10^7 MBs or 350 μl free gas
Procedure: Lyophilized microbubbles prepared as described in Example 1 herein were weighed and inserted into a headspace vial, and the vial was sealed by a screw cap with 1.3 mm silicone septum. Empty 50 ml syringe, 10 ml syringe filled with the desired gas and a 27 G needle, were connected to a 3 ways stopcock. The air inside the vail was drawn using the 50 ml syringe to form a vacuum, then the desired gas in the 10 ml syringe was injected into the vial. The MBs were dispersed with the desired volume (3 ml-7 ml) of degassed water, which was injected with an additional syringe and needle (23 G) through the septum cap, to prevent gas leakage. […]
Acoustic absorbing material (E in FIG. 8) was located at the top of the chamber to prevent ultrasound reflection, and a receiver (hydrophone manufactured by InSightec) was placed at an angle of […] to the direction of wave propagation (F in FIG. 8). […] These variations were recorded by the same digital pico-oscilloscope, and the data was analyzed using MATLAB software. […]
Between measurements, it was necessary to degas the water in the system to ensure that the measured cavitation was caused by the activity of microbubbles examined in the specific experiment, and not as a result of existing gas bubbles in water, or microbubbles from a previous experiment, which remained in the system. […]
The data were analyzed using MATLAB software. […]

| SMILES | water solubility [1] [mg/mL] | Ostwald coefficient (×10^6) [2] | Diffusivity coefficient in water [2] | cavitation dose (CD) by inner core structure, compared with hollow single-core microbubbles [3] |
| --- | --- | --- | --- | --- |
| ClCCl [DCM, dichloromethane] | 20 (≈ 235 mM) | – | – | – |
| FS(F)(F)(F)(F)F [SF6, sulfur hexafluoride] | – | 5400 ×10^6 | 12 m^2s^−1 (×10^10) | – |
| FC(F)(F)C(F)(F)C(F)(F)F [Synthesis C3F8, perfluoropropane] | – | 520 ×10^6 | 7.45 m^2s^−1 (×10^10) | very low |
| FC(F)(F)C(F)(F)C(F)(F)C(F)(F)F [Synthesis C4F10, perfluorobutane] | – | 202 ×10^6 | 6.9 m^2s^−1 (×10^10) | – |
| CCOC(C)=O [ethyl acetate] | 90 | – | – | – |
